Experimental data: ChEMBL document CHEMBL3885881, “DrugMatrix”

Organism: Rattus norvegicus
Assay: DrugMatrix - Regimen: Daily Repeat
Type: toxicity, organism-based, Sprague-Dawley
Parameters: regimen Daily Repeat, gender Male, age 6-8 weeks
Conditions: in vivo, po, route oral GAVAGE, vehicle 100 % WATER; for ABSOLUTE BASOPHIL / ABSOLUTE EOSINOPHIL / ABSOLUTE LYMPHOCYTE / ABSOLUTE MONOCYTE / ABSOLUTE SEGMENTED NEUTROPHIL / BASOPHIL / EOSINOPHIL / ERYTHROCYTE COUNT / HEMATOCRIT / HEMOGLOBIN / LEUKOCYTE COUNT / LYMPHOCYTE / MEAN CORPUSCULAR HEMOGLOBIN / MEAN CORPUSCULAR HEMOGLOBIN CONCENTRATION / MEAN CORPUSCULAR VOLUME / MONOCYTE / NEUTROPHIL / NUCLEATED RED BLOOD CELLS / PLATELET COUNT: tissue Blood; for ALANINE AMINOTRANSFERASE / ALBUMIN / ALKALINE PHOSPHATASE / ASPARTATE AMINOTRANSFERASE / BLOOD UREA NITROGEN / CARBON DIOXIDE / CHLORIDE / CHOLESTEROL / CREATINE PHOSPHOKINASE / CREATININE / GLUCOSE / LACTATE DEHYDROGENASE / LIPASE / PHOSPHORUS / POTASSIUM / SODIUM / TOTAL BILIRUBIN / TOTAL PROTEIN / URIC ACID: tissue Plasma
[1] = 0 mg/kg, 72 h, dose level Control, time 3 day
[2] = 0 mg/kg, 120 h, dose level Control, time 5 day
[3] = 2 mg/kg, 72 h, dose level Low, time 3 day

C[C@]12C=CC(=O)C=C1CC[C@@H]1[C@@H]2[C@@H](O)C[C@@]2(C)[C@H]1CC[C@]2(O)C(=O)CO [PREDNISOLONE]
ABSOLUTE BASOPHIL [1]: 0 CELLS/uL | ABSOLUTE EOSINOPHIL [1]: 24 CELLS/uL | ABSOLUTE LYMPHOCYTE [1]: 13105 CELLS/uL | ABSOLUTE MONOCYTE [1]: 76 CELLS/uL | ABSOLUTE SEGMENTED NEUTROPHIL [1]: 2145 CELLS/uL | BASOPHIL [1]: 0% | EOSINOPHIL [1]: 0.17% | ERYTHROCYTE COUNT [1]: 5.81 x10E6/uL | HEMATOCRIT [1]: 35.6% | HEMOGLOBIN [1]: 13.72 G/DL | LEUKOCYTE COUNT [1]: 15.35 x10E3/uL | LYMPHOCYTE [1]: 85.5% | MEAN CORPUSCULAR HEMOGLOBIN [1]: 23.62 pg | MEAN CORPUSCULAR HEMOGLOBIN CONCENTRATION [1]: 38.55 G/DL | MEAN CORPUSCULAR VOLUME [1]: 61.23 fL | MONOCYTE [1]: 0.5% | NEUTROPHIL [1]: 13.83% | NUCLEATED RED BLOOD CELLS [1]: 0 /100WBC | PLATELET COUNT [1]: 1189.83 x10E3/uL | ALANINE AMINOTRANSFERASE [1]: 48.67 u/L | ALBUMIN [1]: 4.27 G/DL | ALKALINE PHOSPHATASE [1]: 335 u/L | ASPARTATE AMINOTRANSFERASE [1]: 86.5 u/L | BLOOD UREA NITROGEN [1]: 14.33 mg/dL | CARBON DIOXIDE [1]: 29.17 mmol/L | CHLORIDE [1]: 99.83 MEQ/L | CHOLESTEROL [1]: 71.83 mg/dL | CREATINE PHOSPHOKINASE [1]: 506.83 u/L | CREATININE [1]: 0.18 mg/dL | GLUCOSE [1]: 162.17 mg/dL | LACTATE DEHYDROGENASE [1]: 264.5 u/L | LIPASE [1]: 9.67 u/L | PHOSPHORUS [1]: 11.92 mg/dL | POTASSIUM [1]: 6.55 MEQ/L | SODIUM [1]: 141.53 MEQ/L | TOTAL BILIRUBIN [1]: 0.18 mg/dL | TOTAL PROTEIN [1]: 5.87 G/DL | URIC ACID [1]: 1.67 mg/dL | ABSOLUTE BASOPHIL [2]: 0 CELLS/uL | ABSOLUTE EOSINOPHIL [2]: 25.33 CELLS/uL | ABSOLUTE LYMPHOCYTE [2]: 15680 CELLS/uL | ABSOLUTE MONOCYTE [2]: 92.33 CELLS/uL | ABSOLUTE SEGMENTED NEUTROPHIL [2]: 2102.33 CELLS/uL | BASOPHIL [2]: 0% | EOSINOPHIL [2]: 0.17% | ERYTHROCYTE COUNT [2]: 6 x10E6/uL | HEMATOCRIT [2]: 35.55% | HEMOGLOBIN [2]: 14.12 G/DL | LEUKOCYTE COUNT [2]: 17.9 x10E3/uL | LYMPHOCYTE [2]: 87.33% | MEAN CORPUSCULAR HEMOGLOBIN [2]: 23.65 pg | MEAN CORPUSCULAR HEMOGLOBIN CONCENTRATION [2]: 39.77 G/DL | MEAN CORPUSCULAR VOLUME [2]: 59.52 fL | MONOCYTE [2]: 0.5% | NEUTROPHIL [2]: 12% | NUCLEATED RED BLOOD CELLS [2]: 0.17 /100WBC | PLATELET COUNT [2]: 1325.67 x10E3/uL | ALANINE AMINOTRANSFERASE [2]: 56.17 u/L | ALBUMIN [2]: 4.23 G/DL | ALKALINE PHOSPHATASE [2]: 371.5 u/L | ASPARTATE AMINOTRANSFERASE [2]: 91 u/L | BLOOD UREA NITROGEN [2]: 15.33 mg/dL | CARBON DIOXIDE [2]: 27.67 mmol/L | CHLORIDE [2]: 99.5 MEQ/L | CHOLESTEROL [2]: 66.5 mg/dL | CREATINE PHOSPHOKINASE [2]: 518.5 u/L | CREATININE [2]: 0.18 mg/dL | GLUCOSE [2]: 143.33 mg/dL | LACTATE DEHYDROGENASE [2]: 238.83 u/L | LIPASE [2]: 9.33 u/L | PHOSPHORUS [2]: 10.68 mg/dL | POTASSIUM [2]: 6.5 MEQ/L | SODIUM [2]: 141.88 MEQ/L | TOTAL BILIRUBIN [2]: 0.18 mg/dL | TOTAL PROTEIN [2]: 6 G/DL | URIC ACID [2]: 1.63 mg/dL | ABSOLUTE BASOPHIL [3]: 0 CELLS/uL | ABSOLUTE EOSINOPHIL [3]: 0 CELLS/uL | ABSOLUTE LYMPHOCYTE [3]: 13282 CELLS/uL | ABSOLUTE MONOCYTE [3]: 183.67 CELLS/uL | ABSOLUTE SEGMENTED NEUTROPHIL [3]: 1434.33 CELLS/uL | BASOPHIL [3]: 0% | EOSINOPHIL [3]: 0% | ERYTHROCYTE COUNT [3]: 5.89 x10E6/uL | HEMATOCRIT [3]: 36.9% | HEMOGLOBIN [3]: 14.23 G/DL | LEUKOCYTE COUNT [3]: 14.9 x10E3/uL | LYMPHOCYTE [3]: 88.67% | MEAN CORPUSCULAR HEMOGLOBIN [3]: 24.17 pg | MEAN CORPUSCULAR HEMOGLOBIN CONCENTRATION [3]: 38.57 G/DL | MEAN CORPUSCULAR VOLUME [3]: 62.63 fL | MONOCYTE [3]: 1% | NEUTROPHIL [3]: 10.33% | NUCLEATED RED BLOOD CELLS [3]: 0 /100WBC | PLATELET COUNT [3]: 1283.33 x10E3/uL | ALANINE AMINOTRANSFERASE [3]: 48.33 u/L | ALBUMIN [3]: 4.37 G/DL | ALKALINE PHOSPHATASE [3]: 335.33 u/L | ASPARTATE AMINOTRANSFERASE [3]: 82.67 u/L | BLOOD UREA NITROGEN [3]: 15.67 mg/dL | CARBON DIOXIDE [3]: 25.33 mmol/L | CHLORIDE [3]: 101.33 MEQ/L | CHOLESTEROL [3]: 64.67 mg/dL | CREATINE PHOSPHOKINASE [3]: 495.33 u/L | CREATININE [3]: 0.15 mg/dL | GLUCOSE [3]: 167.67 mg/dL | LACTATE DEHYDROGENASE [3]: 139 u/L | LIPASE [3]: 9.67 u/L | PHOSPHORUS [3]: 12.63 mg/dL | POTASSIUM [3]: 5.96 MEQ/L | SODIUM [3]: 144.8 MEQ/L | TOTAL BILIRUBIN [3]: 0.17 mg/dL | TOTAL PROTEIN [3]: 6.1 G/DL | URIC ACID [3]: 1.97 mg/dL
